# Source: patent US8664228B2, “3,5-diamino-6-chloro-pyrazine-2-carboxylic acid derivatives and their use as epithelial sodium channel blockers for the treatment of airway diseases” (Novartis AG, priority 2008, dated 2014)
# Structures can show the parent of a compound that is named as a salt.
# Target: T1, epithelial sodium channel (ENaC) (Homo sapiens, UniProt P37088+P51168+P51170)
# T1 construct: host or cells: primary human bronchial epithelial cells (HBECs), air-liquid interface culture
# T1 sequence (P37088 1-669): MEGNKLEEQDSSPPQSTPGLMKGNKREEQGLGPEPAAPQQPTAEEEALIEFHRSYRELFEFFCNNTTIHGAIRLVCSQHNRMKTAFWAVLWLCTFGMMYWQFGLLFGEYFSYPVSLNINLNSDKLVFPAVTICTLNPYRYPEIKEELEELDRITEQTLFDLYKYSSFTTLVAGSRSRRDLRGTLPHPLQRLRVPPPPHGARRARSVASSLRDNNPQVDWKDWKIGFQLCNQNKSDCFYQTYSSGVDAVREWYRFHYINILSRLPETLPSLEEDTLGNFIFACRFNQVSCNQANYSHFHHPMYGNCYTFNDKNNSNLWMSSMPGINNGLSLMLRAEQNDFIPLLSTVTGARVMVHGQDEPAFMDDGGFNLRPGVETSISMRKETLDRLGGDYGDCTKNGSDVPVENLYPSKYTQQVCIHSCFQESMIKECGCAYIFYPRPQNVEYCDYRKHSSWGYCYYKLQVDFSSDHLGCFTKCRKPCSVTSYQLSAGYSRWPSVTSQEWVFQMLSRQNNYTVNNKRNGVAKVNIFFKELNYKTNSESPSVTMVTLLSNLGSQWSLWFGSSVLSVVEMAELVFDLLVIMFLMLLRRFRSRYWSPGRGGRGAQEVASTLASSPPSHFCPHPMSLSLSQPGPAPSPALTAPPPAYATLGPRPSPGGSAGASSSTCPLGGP
# T1 sequence (P51168 1-640): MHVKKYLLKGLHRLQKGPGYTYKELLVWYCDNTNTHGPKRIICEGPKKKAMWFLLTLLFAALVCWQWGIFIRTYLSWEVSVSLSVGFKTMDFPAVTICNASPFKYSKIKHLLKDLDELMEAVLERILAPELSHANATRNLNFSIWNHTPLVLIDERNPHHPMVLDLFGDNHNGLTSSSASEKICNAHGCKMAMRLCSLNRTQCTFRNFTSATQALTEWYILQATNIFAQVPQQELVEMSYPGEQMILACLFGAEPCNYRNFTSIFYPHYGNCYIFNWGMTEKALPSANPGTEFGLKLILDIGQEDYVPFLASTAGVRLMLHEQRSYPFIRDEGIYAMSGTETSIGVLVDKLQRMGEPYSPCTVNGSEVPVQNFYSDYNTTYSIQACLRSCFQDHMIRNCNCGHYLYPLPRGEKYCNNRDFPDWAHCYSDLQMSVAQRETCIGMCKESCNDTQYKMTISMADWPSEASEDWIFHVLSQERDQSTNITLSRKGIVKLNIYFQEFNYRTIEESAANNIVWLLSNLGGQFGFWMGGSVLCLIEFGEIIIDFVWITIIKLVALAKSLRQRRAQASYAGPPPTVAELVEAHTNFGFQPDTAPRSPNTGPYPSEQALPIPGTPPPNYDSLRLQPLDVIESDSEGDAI
# T1 sequence (P51170 1-649): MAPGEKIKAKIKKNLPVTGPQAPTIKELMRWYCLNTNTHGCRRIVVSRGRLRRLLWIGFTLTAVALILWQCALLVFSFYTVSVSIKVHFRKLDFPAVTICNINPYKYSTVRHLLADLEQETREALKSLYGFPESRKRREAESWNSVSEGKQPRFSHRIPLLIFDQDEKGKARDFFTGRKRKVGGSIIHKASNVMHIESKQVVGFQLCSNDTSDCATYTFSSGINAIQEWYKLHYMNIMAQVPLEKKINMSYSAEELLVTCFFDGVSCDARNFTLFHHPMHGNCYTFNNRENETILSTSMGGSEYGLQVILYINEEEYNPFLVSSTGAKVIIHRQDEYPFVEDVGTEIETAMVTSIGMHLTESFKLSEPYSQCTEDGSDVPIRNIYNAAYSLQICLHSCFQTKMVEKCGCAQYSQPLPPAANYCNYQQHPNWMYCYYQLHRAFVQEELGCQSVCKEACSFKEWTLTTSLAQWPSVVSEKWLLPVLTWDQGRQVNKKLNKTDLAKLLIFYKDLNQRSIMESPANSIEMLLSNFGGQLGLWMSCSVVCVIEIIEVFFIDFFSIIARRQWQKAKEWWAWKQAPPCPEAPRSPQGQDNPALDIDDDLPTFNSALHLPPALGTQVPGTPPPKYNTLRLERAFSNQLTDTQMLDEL
# Assay: Short circuit current (ISC) measurements in human bronchial epithelial cells, inhibition of amiloride-sensitive ISC
# Format: cell-based
# Settings: Human Bronchial Epithelial cells (HBECs) at air-liquid interface, Ussing chamber, apical addition
# Experimental: Human Bronchial Epithelial cells (HBECs) (Cambrex) were cultured under air-liquid interface conditions to provide a well differentiated mucociliary phenotype.
# HBECs were cultured using a modification of the method described by Gray and colleagues (Gray et al., 1996). Cells were seeded in plastic T-162 flasks and were grown in bronchial epithelial cell growth medium (BEGM; Cambrex) supplemented with bovine pituitary extract (52 μg/mL), hydrocortisone (0.5 μg/mL), human recombinant epidermal growth factor (0.5 ng/mL), epinephrine (0.5 μg/mL), transferrin (10 μg/mL), insulin (5 μg/mL), retinoic acid (0.1 μg/mL), triiodothyronine ([…]), gentamycin (50 μg/mL) and amphotericin B (50 ng/mL). Medium was changed every 48 hours until cells were 90% confluent. Cells were then passaged and seeded (8.25×10^5 cells/insert) on polycarbonate Snapwell inserts (Costar) in differentiation media containing 50% DMEM in BEGM with the same supplements as above but without triiodothyronine and a final retinoic acid concentration of 50 nM (all-trans retinoic acid). Cells were maintained submerged for the first 7 days in culture, after which time they were exposed to an apical air interface for the remainder of the culture period. At this time, media was changed to DMEM:F12 media containing 2% v/v Ultroser G for the remainder of culture. Amphotericin B was removed from all media 3 feeds prior to use in the Ussing Chambers. Cells were used between days 7 and 21 after establishment of the apical-air interface. At all stages of culture, cells were maintained at 37° C. in 5% CO2 in an air incubator.
# Snapwell inserts were mounted in Vertical Diffusion Chambers (Costar) and were bathed with continuously gassed Ringer solution (5% CO2 in O2; pH 7.4) maintained at 37° C. containing (in mM): 120 NaCl, 25 NaHCO3, 3.3 KH2PO4, 0.8 K2HPO4, 1.2 CaCl2, 1.2 MgCl2, and 10 glucose. The solution osmolarity was between 280 and 300 mOsmol/kg H2O for all physiological salt solutions used. Cells were voltage clamped to 0 mV (model EVC4000; WPI). RT was measured by applying a 1- or 2-mV pulse at 30-s intervals and calculating RT by Ohm's law. Data were recorded using a PowerLab workstation (ADInstruments).
# Test compounds were prepared as a 10 mM stock solution in DMSO (95%). Serial 3-fold dilutions were freshly prepared in an appropriate vehicle (distilled H2O or Ringers solution). The initial concentration was added to the apical chamber as a 1000× concentrate in 5 μL, resulting in a final 1× concentration the 5 mL volume of the Ussing chamber. Subsequent additions of compound were added in a 3.3 μL volume of the 1000× serially diluted stock solution. At the completion of the concentration-response experiment, amiloride (10 μM) was added into the apical chamber to enable the total amiloride-sensitive current to be measured. An amiloride control IC50 was established at the start of each experiment.
# Results are expressed as the mean % inhibition of the amiloride-sensitive ISC. Concentration-response curves were plotted and IC50 values generated using GraphPad Prism 3.02. Cell inserts were typically run in duplicate and the IC50 calculated on the mean % inhibition data.
row,Compound,IC50 [nM]
1,"CCC[C@H](CNC(=O)c1nc(Cl)c(N)nc1N)NC(=N)N [Example 24, 3,5-Diamino-6-chloro-pyrazine-2-carboxylic acid ((R)-2-guanidino-pentyl)-amide trifluoroacetate]",45
2,"Nc1nc(N)c(C(=O)NCC2(N)CCCC2)nc1Cl [Example 11, 3,5-Diamino-6-chloro-pyrazine-2-carboxylic acid (1-amino-cyclopentylmethyl)-amide hydrochloride]",5900
3,"CCC[C@H](N)CNC(=O)c1nc(Cl)c(N)nc1N [Example 4, 3,5-Diamino-6-chloro-pyrazine-2-carboxylic acid ((S)-2-amino-pentyl)-amide hydrochloride]",290
4,"N=C(N)N[C@@H](CCCCNC(=O)Cc1ccc(OCc2ccccc2)cc1)CNC(=O)c1nc(Cl)c(N)nc1N [Example 27, 3,5-Diamino-6-chloro-pyrazine-2-carboxylic acid {(S)-6-[2-(4-benzyloxy-phenyl)-acetylamino]-2-guanidino-hexyl}-amide trifluoroacetate]",200
5,"Nc1nc(N)c(C(=O)NC[C@@H]2CCCN2)nc1Cl [Example 9, 3,5-Diamino-6-chloro-pyrazine-2-carboxylic acid ((S)-1-pyrrolidin-2-ylmethyl)-amide hydrochloride]",2740
6,"Nc1nc(N)c(C(=O)NC[C@@H](N)CCCCNC(=O)Cc2ccc(OCc3ccccc3)cc2)nc1Cl [Example 12, 3,5-Diamino-6-chloro-pyrazine-2-carboxylic acid {(S)-2-amino-6-[2-(4-benzyloxy-phenyl)-acetylamino]-hexyl}-amide trifluororoacetate]",32
7,"Nc1nc(N)c(C(=O)NC[C@@H](N)CCCCNC(=O)CCc2ccc(OCc3ccccc3)cc2)nc1Cl [Example 21, 3,5-Diamino-6-chloro-pyrazine-2-carboxylic acid {(S)-2-amino-6-[3-(4-benzyloxy-phenyl)-propionylamino]-hexyl}-amide hydrochloride]",64

# Other lines, results leading:
row,IC50 [nM],Compound
1,49,"CCC[C@@H](CNC(=O)c1nc(Cl)c(N)nc1N)NC(=N)NCCCc1ccc(OC)cc1 [Example 31, 3,5-Diamino-6-chloro-pyrazine-2-carboxylic acid ((S)-2-{N′-[3-(4-methoxy-phenyl)-propyl]-guanidino}-pentyl)-amide]"
2,60,"CCC[C@@H](CNC(=O)c1nc(Cl)c(N)nc1N)NCCCc1ccc(OC)cc1 [Example 26, 3,5-Diamino-6-chloro-pyrazine-2-carboxylic acid {(S)-2-[3-(4-methoxy-phenyl)-propylamino]-pentyl}-amide hydrochloride]"
3,5,"CCC[C@H](CNC(=O)c1nc(Cl)c(N)nc1N)N(CCCc1ccc(OC)cc1)C(=N)N [Example 29, 3,5-Diamino-6-chloro-pyrazine-2-carboxylic acid ((R)-2-{N-[3-(4-methoxy-phenyl)-propyl]-guanidino}-pentyl)-amide trifluoroacetate]"
4,6,"CCC[C@@H](CNC(=O)c1nc(Cl)c(N)nc1N)NC(=N)NCc1ccc(OC)cc1 [Example 32, 3,5-Diamino-6-chloro-pyrazine-2-carboxylic acid {(S)-2-[N′-(4-methoxy-benzyl)-guanidino]-pentyl}-amide]"
